In ChEMBL document CHEMBL1130253 (J Med Chem, 1997):

Experiments:
[1] = tested on: CCRF-CEM; experiment: Concentration required to inhibit against HIV strain IIIB in CEM cell; assay type: functional; settings: Homo sapiens, read-out: ED50 (the source's name)
[2] = Minimum cellular toxicity against the HIV strain IIIB in CEM cells was determined; assay type: cell-based, CCRF-CEM; settings: human, read-out: TD50 (the source's name)

Row | SMILES | EC50 [1] | CC50 [2]
1 | Cc1c(O)cccc1C(=O)N[C@@H](CSc1ccc2ccccc2c1)[C@H](O)Cc1ccccc1C(=O)NC(C)(C)C | 970 nM | –
2 | Cc1c(O)cccc1C(=O)N[C@@H](Cc1ccccc1)[C@H](O)CN1C[C@H]2CCCC[C@H]2C[C@H]1C(=O)NC(C)(C)C | 33 nM | > 5000 nM
